We go through 18 molecules from ChEMBL document CHEMBL3301464, “MMV Malaria Box anti-babesial screening”.

Molecules are shown by their SMILES.

The nature of assay [1]: (§1) MMV: Anti-babesial activity assay. Parasite pRBCs at 1% parasitemia were cultivated in 100 ul with 96-well plates at 2.5% and 5% hematocrits. The parasites were cultivated in triplicate for 4 days without replacement of the medium for each concentration of the compound. The format is functional, Babesia bigemina.
A short description of assay [2]: as §1. The format is functional, Babesia bovis.
Assay [3] can be described thus: as §1. The format is functional, Babesia caballi.
Assay [4] in a line: as §1. The format is functional, Babesia equi.

Take `Clc1ccc2c(N3CCCC3)ccnc2c1`: the IC50 in assay [1] worked out at 9.15 µM; in assay [2], 7.09 µM; in assay [3] it was 6.86 µM; in assay [4], 8.83 µM.

As for `COc1ccccc1N1C(=N)SC(=Cc2ccc(OCc3ccccc3F)cc2)C1=O`, the IC50 in assay [1] is 10 µM; in assay [2], 18.6 µM; in assay [3], 17.1 µM; in assay [4], 16.1 µM.

`O=C(Nc1ccc(-c2nc3cc4ccccc4cc3[nH]2)cc1)c1cccc(Br)c1`: the IC50 in assay [1] turned out to be 4.91 µM; in assay [2], 7 µM; in assay [3] it was 9.03 µM; in assay [4], 10 µM.

Take `COc1ccc(CNC2CCN(c3ccc(NC(=O)c4cccc(Cl)c4)cc3)CC2)cc1OC`: the IC50 in assay [1] turned out to be 0.85 µM; in assay [2] it was 0.1 µM; in assay [3], 12.4 µM; in assay [4], 0.309 µM.

Regarding `COC(=O)c1ccc(C2C3=C(O)CC(c4ccc(F)cc4)CC3=Nc3ccccc3N2C(=O)c2ccccc2)cc1` (configuration not stated), the IC50 came to 0.086 µM in assay [1], 0.063 µM in assay [2], 6.86 µM in assay [3] and 10.4 µM in assay [4].

With `C=CC12CCN(CC1)C(C(O)c1ccnc3ccc(OC)cc13)C2` (configuration not stated), the IC50 in assay [1] worked out at 14.4 µM; in assay [2], 17.3 µM; in assay [3], 13.1 µM; in assay [4] it was 3.21 µM.

Regarding `CN1CCN(c2nc(Nc3ccc(O)cc3)nc3ccccc23)CC1`, the IC50 in assay [1] came to 10.2 µM; in assay [2], 16.8 µM; in assay [3], 9 µM; in assay [4], 15.6 µM.

As to `Cc1c(C)n(CC(O)CNC2CCCCC2C)c2ccccc12` (configuration not stated), the IC50 in assay [1] is 4.09 µM; in assay [2], 0.1 µM; in assay [3] it was 2.49 µM; in assay [4] it was 4.76 µM.

In the case of `O=C(NC1CCN(Cc2ccccc2)CC1)c1cc(-c2cccnc2)nc2ccc(Cl)cc12`, the IC50 in assay [1] was 13.9 µM; in assay [2] it was above 25 µM; in assay [3] it was 0.071 µM; in assay [4], 0.48 µM.

Regarding `CCOC(=O)c1cnc2c(C)cccc2c1Nc1ccc(C(C)=O)cc1`, the half-maximal inhibitory concentration (IC50) in assay [1] is above 25 µM; in assay [2], 19.6 µM; in assay [3] it was 6.08 µM; in assay [4], 12.6 µM.

Regarding `Cc1cc(N2CCN(C3CCCC3)CC2)n2c(nc3ccccc32)c1C#N`, the IC50 in assay [1] stood at 0.1 µM; in assay [2], 0.75 µM; in assay [3], 0.38 µM; in assay [4] it was 0.065 µM.

On to `CC(C)(C)c1ccc(O)c(CNC2CCCCC2)c1`, for which the IC50 in assay [1] is 17 µM; in assay [2], 18.2 µM; in assay [3] it was 10 µM; in assay [4] it was 7 µM.

Regarding `CCCCNCC(O)(c1ccc(Cl)cc1)c1ccc(Cl)cc1`, the IC50 in assay [1] amounted to 0.078 µM; in assay [2], 15.5 µM; in assay [3], 5.35 µM; in assay [4] it was 1 µM.

Turning to `O=C(NC1CCN(Cc2ccccc2)CC1)c1cc(C(=O)NC2CCN(Cc3ccccc3)CC2)cc(C(=O)NC2CCN(Cc3ccccc3)CC2)c1`, the half-maximal inhibitory concentration (IC50) in assay [1] was found to be 0.077 µM; in assay [2], 0.06 µM; in assay [3], 5.3 µM; in assay [4], 15.2 µM.

On to `Cc1cc(N(C)C)nc(Nc2ccc(NC(=O)Nc3ccccc3)cc2)n1`, for which the IC50 in assay [1] turned out to be 0.06 µM; in assay [2] it was 0.078 µM; in assay [3], 14.6 µM; in assay [4], 12.1 µM.

For the molecule `CCOc1cc2c(cc1OCC)C(c1cc(Cl)c(O)c(OCC)c1)NCC2` (configuration not stated), the IC50 is above 25 µM in assay [1], 24 µM in assay [2], 13.4 µM in assay [3] and 12.3 µM in assay [4].

Consider `Cc1ccc(C2CC(C(F)(F)F)n3nc(C(=O)N4CCN(C(c5ccccc5)c5ccccc5)CC4)cc3N2)cc1` (configuration not stated), for which the IC50 came to 15.9 µM in assay [1], 9.55 µM in assay [2], 0.98 µM in assay [3] and 12.6 µM in assay [4].

As for `CCC(C)NCC(O)(c1ccc(Cl)cc1)c1ccc(Cl)cc1` (configuration not stated), the half-inhibitory concentration (IC50) in assay [1] stood at 1.9 µM; in assay [2], 25 µM; in assay [3], 2.96 µM; in assay [4], 7.67 µM.

What is called IC50 is the concentration needed to halve the response being measured.
